Values of other authors, collected in patent publication US12233110B2, “Compositions comprising pharmaceutically acceptable salts of glucagon-like peptide-1 analogs and uses thereof” (i20 Therapeutics, Inc., priority 2021, dated 2025).

Conditions: Reference Data

Row | Compound | pKa
1 | O=C(O)O [bicarbonate] | approximately 6
2 | C[N+](C)(C)CCO [choline] | approximately 14
